From PubChem BioAssay AID330 (DTP/NCI, 2004)
Values joined by “and” are separate entries in the source; they are usually repeats but may differ in a detail not shown here. Identical values can stand only once. Toxic doses and inconclusive results are not listed. The calls were made as follows: active = survival T/C of 150% or more; inactive = T/C below 125% in these data.

Test system: P388 leukemia ip, CD2F1 mice, survival T/C
Test: NCI In Vivo Anticancer Drug Screen. Data for tumor model P388 Leukemia (intraperitoneal) in CD2F1 (CDF1) mice
Details: endpoint: median survival time, higher = longer survival
Procedure, shortened: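 Mice carrying the transplanted tumor received test compound or vehicle. Survival was recorded in each group, and the value is the treated-group measurement divided by that of the vehicle-treated control group.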

[1] = dose: 60.0 mg/kg/injection, schedule: Q01DX005 (ip), vehicle: saline with Tween-80
[2] = dose: 120.0 mg/kg/injection, schedule: Q01DX005 (ip), vehicle: saline with Tween-80
[3] = dose: 240.0 mg/kg/injection, schedule: Q01DX005 (ip), vehicle: saline with Tween-80
[4] = dose: 100.0 mg/kg/injection, schedule: Q01DX009 (ip), vehicle: saline with Tween-80
[5] = dose: 200.0 mg/kg/injection, schedule: Q01DX009 (ip), vehicle: saline with Tween-80
[6] = dose: 6.25 mg/kg/injection, schedule: Q01DX005 (ip), vehicle: saline
[7] = dose: 12.5 mg/kg/injection, schedule: Q01DX005 (ip), vehicle: saline
[8] = dose: 25.0 mg/kg/injection, schedule: Q01DX005 (ip), vehicle: saline
[9] = dose: 50.0 mg/kg/injection, schedule: Q01DX005 (ip), vehicle: saline
[10] = dose: 60.0 mg/kg/injection, schedule: Q01DX005 (ip), vehicle: Klucel (hydroxypropylcellulose) (HPC)
[11] = dose: 120.0 mg/kg/injection, schedule: Q01DX005 (ip), vehicle: Klucel (hydroxypropylcellulose) (HPC)
[12] = dose: 240.0 mg/kg/injection, schedule: Q01DX005 (ip), vehicle: Klucel (hydroxypropylcellulose) (HPC)
[13] = dose: 50.0 mg/kg/injection, schedule: Q01DX009 (ip), vehicle: saline with Tween-80

Measured: T/C

O=Cc1ccc2occc2c1O
inactive: dose: 3.75 mg/kg/injection, schedule: Q01DX009 (ip), vehicle: saline with Tween-80 95 % of control | dose: 7.5 mg/kg/injection, schedule: Q01DX009 (ip), vehicle: saline with Tween-80 94 % of control | dose: 15.0 mg/kg/injection, schedule: Q01DX009 (ip), vehicle: saline with Tween-80 92 % of control

O=C1NC(c2cccc3ccccc23)Nc2ccc(O)cc21 (stereo not given)
inactive: dose: 8.75 mg/kg/injection, schedule: Q01DX005 (ip), vehicle: DMSO 102 % of control | dose: 17.5 mg/kg/injection, schedule: Q01DX005 (ip), vehicle: DMSO 100 % of control | dose: 35.0 mg/kg/injection, schedule: Q01DX005 (ip), vehicle: DMSO 102 % of control | dose: 70.0 mg/kg/injection, schedule: Q01DX005 (ip), vehicle: DMSO 98 % of control | dose: 140.0 mg/kg/injection, schedule: Q01DX005 (ip), vehicle: DMSO 100 % of control

COc1ccc2c(C)c3[n+](cc2c1OC)CCc1cc2c(cc1-3)OCO2
inactive: dose: 0.4 mg/kg/injection, schedule: Q01DX005 (ip), vehicle: saline 95 % of control | dose: 0.78 mg/kg/injection, schedule: Q04DX003 (ip), vehicle: water 102 % of control | dose: 0.8 mg/kg/injection, schedule: Q01DX005 (ip), vehicle: saline 101 % of control | dose: 1.56 mg/kg/injection, schedule: Q04DX003 (ip), vehicle: water 103 % of control | dose: 1.6 mg/kg/injection, schedule: Q01DX005 (ip), vehicle: saline 107 % of control | dose: 3.13 mg/kg/injection, schedule: Q04DX003 (ip), vehicle: water 106 % of control | dose: 6.25 mg/kg/injection, schedule: Q04DX003 (ip), vehicle: water 97 % of control | dose: 12.5 mg/kg/injection, schedule: Q04DX003 (ip), vehicle: water 97 % of control

O=C1c2ccsc2CN2C(=O)CCC12 (stereo not given)
inactive: [1] 95 % of control | [2] 103 % of control | [3] 110 % of control

CC(=O)Nc1cc(C)ccc1O
inactive: [4] 95 % of control | [5] 100 % of control | dose: 400.0 mg/kg/injection, schedule: Q01DX009 (ip), vehicle: saline with Tween-80 95 % of control

COc1cc(NC(C)CCCNC(C)C)c2ncccc2c1OC (stereo not given)
inactive: [6] 103 % of control | [7] 93 % of control | [8] 93 % of control

C[C@H]1CC(=O)C[C@H]2CCCCN21
inactive: [7] 103 % of control | [8] 105 % of control | [9] 101 % of control

Cc1nn(-c2ccccc2)c(=O)n2c1nc1ccccc12
inactive: [10] 99 % of control | [11] 97 % of control | [12] 91 % of control

CCOC(=O)CC1(O)CSc2nc(N)cc(=O)n21 (stereo not given)
inactive: dose: 50.0 mg/kg/injection, schedule: Q01DX005 (ip), vehicle: Klucel (hydroxypropylcellulose) (HPC) 94 % of control | dose: 100.0 mg/kg/injection, schedule: Q01DX005 (ip), vehicle: Klucel (hydroxypropylcellulose) (HPC) 99 % of control | dose: 200.0 mg/kg/injection, schedule: Q01DX005 (ip), vehicle: Klucel (hydroxypropylcellulose) (HPC) 91 % of control

CN(C)c1ccc2c(=O)c(C(=O)O)c[nH]c2c1
inactive: [6] 96 % of control | [7] 100 % of control | [8] 96 % of control | dose: 25.0 mg/kg/injection, schedule: Q01DX009 (ip), vehicle: water 99 % of control | [9] 95 % of control | dose: 50.0 mg/kg/injection, schedule: Q01DX009 (ip), vehicle: water 101 % of control | dose: 100.0 mg/kg/injection, schedule: Q01DX009 (ip), vehicle: water 94 % of control | dose: 200.0 mg/kg/injection, schedule: Q01DX009 (ip), vehicle: water 89 % of control | dose: 400.0 mg/kg/injection, schedule: Q01DX009 (ip), vehicle: water 93 % of control

C=C(C)[C@@H]1CC[C@]2(C(=O)O)CC[C@@]3(C)[C@]4(C)CC[C@@H]5[C@](C)(CC[C@@H](O)[C@@]5(C)C(=O)O)[C@H]4CC[C@]3(C)[C@@H]12
inactive: dose: 15.0 mg/kg/injection, schedule: Q01DX005 (ip), vehicle: Klucel (hydroxypropylcellulose) (HPC) 104 % of control | dose: 30.0 mg/kg/injection, schedule: Q01DX005 (ip), vehicle: Klucel (hydroxypropylcellulose) (HPC) 117 % of control | [10] 117 % of control

COc1cc(O)cc2c1C(=O)C(C)O2 (stereo not given)
inactive: [10] 101 % of control | [11] 101 % of control | [12] 91 % of control

COc1ccc2c(c1)OC(C)(C)C(c1ccccc1)=C2c1ccc(O)cc1
inactive: dose: 15.0 mg/kg/injection, schedule: Q01DX005 (ip), vehicle: saline with Tween-80 97 % of control | dose: 30.0 mg/kg/injection, schedule: Q01DX005 (ip), vehicle: saline with Tween-80 92 % of control | [1] 95 % of control

CSCc1cc(Cl)ccc1N
inactive: [13] 97 % of control | [4] 97 % of control | [5] 97 % of control

COc1ccc(C(=O)CC2=NC3NN(c4ccccc4)C(=O)C3=C2CC(=O)c2ccc(OC)cc2)cc1 (stereo not given)
inactive: dose: 60.0 mg/kg/injection, schedule: Q01DX005 (ip), vehicle: suspension in saline 101 % of control | dose: 120.0 mg/kg/injection, schedule: Q01DX005 (ip), vehicle: suspension in saline 108 % of control | dose: 240.0 mg/kg/injection, schedule: Q01DX005 (ip), vehicle: suspension in saline 112 % of control

Cc1ccc(N2C(=O)CCSC2=S)cc1Cl
inactive: dose: 50.0 mg/kg/injection, schedule: Q01DX009 (ip), vehicle: Klucel (hydroxypropylcellulose) (HPC) 115 % of control | dose: 50.0 mg/kg/injection, schedule: Q01DX009 (ip), vehicle: suspension in saline 87 % of control | dose: 100.0 mg/kg/injection, schedule: Q01DX009 (ip), vehicle: Klucel (hydroxypropylcellulose) (HPC) 114 % of control and 122 % of control | dose: 100.0 mg/kg/injection, schedule: Q01DX009 (ip), vehicle: suspension in saline 90 % of control | dose: 200.0 mg/kg/injection, schedule: Q01DX009 (ip), vehicle: Klucel (hydroxypropylcellulose) (HPC) 86 % of control | dose: 200.0 mg/kg/injection, schedule: Q01DX009 (ip), vehicle: suspension in saline 99 % of control

CC(N)C(=O)O (stereo not given)
inactive: dose: 50.0 mg/kg/injection, schedule: Q01DX009 (ip), vehicle: saline 115 % of control | dose: 100.0 mg/kg/injection, schedule: Q01DX009 (ip), vehicle: saline 105 % of control | dose: 200.0 mg/kg/injection, schedule: Q01DX009 (ip), vehicle: saline 106 % of control

CN1C(=O)CCC1c1nc2ccccc2[nH]1 (stereo not given)
inactive: [1] 102 % of control | [2] 101 % of control | [3] 96 % of control

COC(=O)CCCC1=NC2=CC=CC3=NC(C)=NC(=N1)N23
inactive: dose: 12.5 mg/kg/injection, schedule: Q01DX009 (ip), vehicle: saline with Tween-80 123 % of control | dose: 25.0 mg/kg/injection, schedule: Q01DX009 (ip), vehicle: saline with Tween-80 114 % of control | [13] 98 % of control | [4] 104 % of control

C/C(N=NC(=S)N1CCN(c2ccccc2)CC1)=C1\C=CC=CN1O
inactive: dose: 50.0 mg/kg/injection, schedule: Q01DX005 (ip), vehicle: saline with Tween-80 103 % of control | dose: 100.0 mg/kg/injection, schedule: Q01DX005 (ip), vehicle: saline with Tween-80 101 % of control | dose: 200.0 mg/kg/injection, schedule: Q01DX005 (ip), vehicle: saline with Tween-80 103 % of control

COc1ccc(C2OC(=N)C(=S)N2C)c(OC)c1 (stereo not given)
inactive: [10] 102 % of control | [11] 104 % of control | [12] 101 % of control
